The structures appear in SMILES notation. Active and inactive are the calls of the source. The rule behind the calls is not given here.

This experiment relates to in vivo angiogenesis, blood vessel count. Kind of experiment: reduction of blood vessel formation in vivo – HTS, in vivo study (AID 732).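 Note: zebrafish embryos dosed at one day post fertilization; 0% = reference inhibitor and 100% = plate mean.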 Conditions: hits give low values;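 tested at 30 µM in the well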.
Consider `NCCc1c[nH]c2ccc(O)cc12`, for which the vessel count % control is 84.5% (inactive).

As for `CCCN1CCc2cccc3c2[C@H]1Cc1ccc(O)c(O)c1-3`, the vessel count % control was 89.9% (inactive).

In the case of `COc1cc(CNC(=O)CCCCCCC(C)C)ccc1O`, the vessel count % control is 128% (inactive).

For the molecule `O=C(O)C1=CCCN(CCON=C(c2ccccc2)c2ccccc2)C1`, the vessel count % control is 104% (inactive).

In the case of `CC(C)=CCC/C(C)=C/CC/C(C)=C/CSc1ccccc1C(=O)O`, the vessel count % control was 78.4% (inactive).

As to `Cc1cnc(C(=O)NCCc2ccc(S(=O)(=O)NC(=O)NC3CCCCC3)cc2)cn1`, the vessel count % control is 106% (inactive).

On to `COCCc1ccc(OCC(O)CNC(C)C)cc1` (configuration not stated), for which the vessel count % control is 128% (inactive).

For the molecule `Cn1cc(C(=O)OCC2CCN(CCNS(C)(=O)=O)CC2)c2ccccc21`, the vessel count % control is 106% (inactive).

Take `CC(N)Cc1c[nH]c2ccc(O)cc12` (configuration not stated): the vessel count % control was 99.1% (inactive).

As to `CC(C)C[C@H](NC(=O)[C@@H](O)[C@H](N)Cc1ccccc1)C(=O)O`, the vessel count % control is 123% (inactive).

As for `O=C(OCCN1CCCCC1)c1c[nH]c2ccccc12`, the vessel count % control was 109% (inactive).

In the case of `CCN(CC)CCNC(=O)c1ccc(N)cc1`, the vessel count % control is 139% (inactive).

`Cc1nc(-c2ccc(-c3ccc(C(=O)N4CCc5cc6c(cc54)C4(CCN(C)CC4)CO6)cc3)c(C)c2)no1`: the vessel count % control is 108% (inactive).

As to `NC(C(=O)O)c1cc(=O)[nH]o1` (configuration not stated), the vessel count % control was 134% (inactive).

For `CCN(CC)CCOC(=O)C1(C2CCCCC2)CCCCC1`, the vessel count % control was 86.4% (inactive).

Take `Cn1cnc(CCN)c1`: the vessel count % control is 99.8% (inactive).

As to `Nc1ccc2c3c(cccc13)C(=O)NC2=O`, the vessel count % control is 0% (inactive).

Turning to `Fc1ccc(C(OCCN2CCN(CCCc3ccccc3)CC2)c2ccc(F)cc2)cc1`, the vessel count % control was 71.4% (inactive).

In the case of `CC(/C=C/c1cccc(Oc2ccc(F)cc2)c1)N(O)C(N)=O` (configuration not stated), the vessel count % control is 100% (inactive).

Take `CC(C)[N+](C)(CCOC(=O)C1c2ccccc2Oc2ccccc21)C(C)C`: the vessel count % control is 134% (inactive).

With `CC(C)[C@@H]1NC(=O)[C@H](CCCCN)NC(=O)[C@@H](Cc2c[nH]c3ccccc23)NC(=O)[C@H](Cc2ccc(O)cc2)NC(=O)[C@H](C)N(C)C(=O)[C@H](Cc2ccccc2)NC1=O`, the vessel count % control is 101% (inactive).

Turning to `FC(F)(F)c1cc(CO[C@H]2CCCN[C@H]2c2ccccc2)cc(C(F)(F)F)c1`, the vessel count % control was 91.5% (inactive).

With `COc1cc(CCN)ccc1O`, the vessel count % control was 124% (inactive).

As to `C1COC(NC(C2CC2)C2CC2)=N1`, the vessel count % control was 100% (inactive).

As to `CCCn1cnc2c1c(=O)n(CCCCC(C)=O)c(=O)n2C`, the vessel count % control is 107% (inactive).

On to `CN(C)CCC=C1c2ccccc2C=Cc2ccccc21`, for which the vessel count % control was 82.4% (inactive).

Regarding `CS(=O)(=O)Nc1ccc([N+](=O)[O-])cc1Oc1ccccc1`, the vessel count % control was 80.2% (inactive).

For the molecule `CNc1ncnc2c1ncn2[C@@H]1O[C@H](CO)[C@H](O)C1O` (some centres not stated), the vessel count % control is 95.4% (inactive).

`Cn1cc(C(F)(F)F)nc1-c1ccc(OCC(O)CNCCOc2ccc(O)c(C(N)=O)c2)cc1` (configuration not stated): the vessel count % control is 82.4% (inactive).

Consider `CN1CCc2cc(NC(=O)Nc3cccnc3)ccc21`, for which the vessel count % control was 86.6% (inactive).

`CCOC(=O)c1ncn2c1CN(C)C(=O)c1cc(F)ccc1-2`: the vessel count % control is 98.9% (inactive).

As to `COc1ccc2[nH]c(I)c(CCNC(C)=O)c2c1`, the vessel count % control is 107% (inactive).

`COC(=O)c1c(-c2cc(OC)c(OC)c(OC)c2)c2ccc(OCc3ccccn3)cc2c(=O)n1-c1ccc(N)cc1`: the vessel count % control is 109% (inactive).

In the case of `COCCOC(=O)C1=C(C)NC(C)=C(C(=O)OC(C)C)C1c1cccc([N+](=O)[O-])c1` (configuration not stated), the vessel count % control is 95.6% (inactive).

With `Cc1cnc(NC(=O)C2=C(O)c3ccccc3S(=O)(=O)N2C)s1`, the vessel count % control was 136% (inactive).

Regarding `N[C@@]1(C(=O)O)CC[C@@H](C(=O)O)C1`, the vessel count % control is 102% (inactive).

On to `C=CCn1c(=O)c2c(nc(-c3ccc(S(=O)(=O)O)cc3)n2C)n(C)c1=O`, for which the vessel count % control was 92% (inactive).

As to `CCN1CCc2nc(N)oc2CC1`, the vessel count % control was 96.4% (inactive).

For `CCCCCCCCCCCCCCCCCC(=O)NCC(COP(=O)([O-])OCC[N+](C)(C)C)OCC` (configuration not stated), the vessel count % control was 101% (inactive).

For the molecule `Cc1nc2ccccn2c(=O)c1CCN1CCC(C(=O)c2ccc(F)cc2)CC1`, the vessel count % control was 94.9% (inactive).

For `NC(=O)C(=O)O`, the vessel count % control was 125% (inactive).

With `COc1ccc(/C=C/C(=O)Nc2ccccc2C(=O)O)cc1OC`, the vessel count % control was 100% (inactive).

`N[C@@H](Cn1ccc(=O)[nH]c1=O)C(=O)O`: the vessel count % control is 102% (inactive).

Take `O=C(O)c1nn(Cc2ccc(Cl)cc2Cl)c2ccccc12`: the vessel count % control is 87.2% (inactive).

Consider `CCSC(=N)N`, for which the vessel count % control is 62.2% (inactive).

As for `C[C@@](Cc1ccc(O)c(O)c1)(NN)C(=O)O`, the vessel count % control was 94.6% (inactive).

`CCCCN1CCC(COC(=O)c2cc(Cl)c(N)c3c2OCCO3)CC1`: the vessel count % control was 105% (inactive).

Turning to `O=c1c(-c2ccc(O)cc2)coc2cc(O)ccc12`, the vessel count % control is 105% (inactive).

With `CN(C)CC[C@@H](c1ccc(Br)cc1)c1ccccn1`, the vessel count % control is 102% (inactive).

For `COc1cc2ncnc(Nc3cccc(Cl)c3)c2cc1OC`, the vessel count % control was 34.6%.

For `C=CCN1CCc2c(cc(O)c(O)c2Cl)C(c2ccccc2)C1` (configuration not stated), the vessel count % control was 121% (inactive).

With `CC(C)NCC(O)c1ccc(NS(C)(=O)=O)cc1` (configuration not stated), the vessel count % control was 95.6% (inactive).

On to `CCOC(=O)C1=C(C)NC(C)=C(C(=O)OC)C1c1cccc([N+](=O)[O-])c1` (configuration not stated), for which the vessel count % control was 89.9% (inactive).

For the molecule `Cc1nc2n(c(=O)c1CCN1CCC(c3noc4cc(F)ccc34)CC1)CCCC2`, the vessel count % control is 104% (inactive).

With `CCCCCCCCCCCCCCCCCC(=O)OC(CC(=O)O)C[N+](C)(C)C` (configuration not stated), the vessel count % control is 71.9% (inactive).

For the molecule `C/C=C/CC(C)C(O)C1C(=O)NC(CC)C(=O)N(C)CC(=O)N(C)C(CC(C)C)C(=O)NC(C(C)C)C(=O)N(C)C(CC(C)C)C(=O)NC(C)C(=O)NC(C)C(=O)N(C)C(CC(C)C)C(=O)N(C)C(CC(C)C)C(=O)N(C)C(C(C)C)C(=O)N1C` (configuration not stated), the vessel count % control is 108% (inactive).

For `O=C1C(c2c(O)[nH]c3ccc([N+](=O)[O-])cc23)=Nc2ccc(Br)cc21`, the vessel count % control is 101% (inactive).

Take `Cc1c2ccncc2c(C)c2c1[nH]c1ccccc12`: the vessel count % control was 110% (inactive).

In the case of `CN(C)C/C=C(/c1ccc(Br)cc1)c1cccnc1`, the vessel count % control was 104% (inactive).

Turning to `CC(CCc1ccccc1)NCC(O)c1ccc(O)c(C(N)=O)c1` (configuration not stated), the vessel count % control is 89.9% (inactive).

Take `Cc1cccc(C2CN(C)CCc3c2cc(O)c(O)c3Cl)c1` (configuration not stated): the vessel count % control was 96.5% (inactive).

`COc1ccc2c(c1)c(CC(=O)O)c(C)n2Cc1ccc(Cl)cc1`: the vessel count % control is 109% (inactive).

For `CC(C)NCC(O)c1cc(O)cc(O)c1` (configuration not stated), the vessel count % control is 91.8% (inactive).

With `Cc1cccc(C#Cc2ccccc2)n1`, the vessel count % control is 92.1% (inactive).

Consider `CC(C)NCC(O)COc1cccc2ccccc12` (configuration not stated), for which the vessel count % control is 117% (inactive).

As for `CNCCCN1c2ccccc2CCc2ccccc21`, the vessel count % control is 82.9% (inactive).

On to `COc1ccc2c(c1)C13CCCCC1C(C2)N(C)CC3` (configuration not stated), for which the vessel count % control is 108% (inactive).

Take `COc1cc(C(=O)OCCCN2CCCN(CCCOC(=O)c3cc(OC)c(OC)c(OC)c3)CC2)cc(OC)c1OC`: the vessel count % control is 116% (inactive).

For the molecule `CC(=O)[C@H]1CC[C@H]2[C@@H]3CCC4=CC(=O)CC[C@]4(C)[C@H]3CC[C@]12C`, the vessel count % control was 102% (inactive).

For `Cc1sc2ccccc2c1CC1=NCCN1`, the vessel count % control was 92.5% (inactive).

Take `NC/C=C/C(=O)O`: the vessel count % control is 97.5% (inactive).

Take `CN(C)CC[C@@H](c1ccc(Cl)cc1)c1ccccn1`: the vessel count % control is 107% (inactive).

Turning to `CC1=C[C@@H]2c3cccc4[nH]cc(c34)C[C@H]2N(C)C1`, the vessel count % control was 81.3% (inactive).

As for `CCN(CC)CC(=O)Nc1c(C)cccc1C`, the vessel count % control was 73.7% (inactive).

`Cc1cccc2c(-c3[nH]c4ccccc4c3N=O)c(O)[nH]c12`: the vessel count % control is 25.1%.

On to `O=C1C2C=CC=CC2=NC(=S)N1CCN1CCC(=C(c2ccc(F)cc2)c2ccc(F)cc2)CC1` (configuration not stated), for which the vessel count % control is 78.2% (inactive).

Turning to `O=C(O)c1cc2cc(Cc3cccnc3)ccc2o1`, the vessel count % control is 100% (inactive).

`CC(C)(C)NCC(O)c1ccccc1Cl` (configuration not stated): the vessel count % control is 130% (inactive).

With `C=CCN1CCc2cccc3c2[C@H]1Cc1ccc(O)c(O)c1-3`, the vessel count % control is 113% (inactive).

Regarding `CCS(=O)(=O)Nc1cccc(C(=C2CCCCC2)c2cnc[nH]2)c1`, the vessel count % control was 98.4% (inactive).

In the case of `CCCCC[C@H](CC(=O)NO)C(=O)N[C@H](C(=O)N1CCC[C@H]1CO)C(C)C`, the vessel count % control is 103% (inactive).

As for `O=C(O)c1cccnc1C(=O)O`, the vessel count % control was 88.1% (inactive).

`CC1CCN=C(N)S1` (configuration not stated): the vessel count % control was 92% (inactive).

On to `CO[C@@]1(NC(=O)CSCC#N)C(=O)N2C(C(=O)O)=C(CSc3nnnn3C)CS[C@@H]21`, for which the vessel count % control is 122% (inactive).

As for `Nc1ccn([C@H]2CC[C@@H](CO)O2)c(=O)n1`, the vessel count % control is 103% (inactive).

With `O=C(c1ccccc1)c1ccc2n1CCC2C(=O)O` (configuration not stated), the vessel count % control was 79.7% (inactive).

Regarding `O=C1CC2(CCCC2)CC(=O)N1CCCCN1CCN(c2ncccn2)CC1`, the vessel count % control is 114% (inactive).

The values above are taken from PubChem BioAssay AID732 (Emory University Molecular Libraries Screening Center, 2007).
